Target: human 5-HT3 receptor (Homo sapiens (Human), UniProt P46098)
Assay: Radioligand binding assay (SPA format), affinity for the human 5-HT3 receptor
Details: not given
Procedure: The relative affinity of the various compounds for the human 5-HT3 receptor was measured in a radioligand binding assay, using a scintillation proximity assay (SPA) format. Test compounds were dissolved to 10 mM in 100% DMSO, then serially diluted at 10× assay concentrations in 100% DMSO in 96-well polypropylene plates and further diluted to 4× assay concentrations with the assay buffer. Samples were incubated in 50 mM Tris-HCl, pH 7.5, 3 mM MgCl2, 1 mM EDTA and 10% DMSO with 10 nM [9-methyl-^3H]BRL-43694 (Perkin Elmer), 3 μg of human 5-HT3 receptor membranes (Perkin Elmer) and 0.5 mg/mL SPA beads (WGA PVT, Amersham Biosciences) in a final volume of 0.2 mL. Binding reactions were set up in wells of PicoPlates-96 (Perkin Elmer) by adding consecutively 50 μL of each competing compound or buffer, SPA beads, the radioligand and 5-HT3 receptor membranes. After an overnight incubation at room temperature on a Nutator mixer, plates were centrifuged for 15 min at 1,500 rpm, followed by incubation in the dark for 30 min. Radioactivity was counted in the TopCount microplate counter (Perkin Elmer) for 5 min. Total binding control contained compound dilution buffer only; nonspecific binding was determined in the presence of 30 μM MDL-72222. Specific binding was determined by subtracting nonspecific binding from total binding. All experiments were performed in duplicate using ten concentrations of competing ligand, with ondansetron included as a control in every run. IC50 values were determined from specific binding data using XLfit4.1 curve fitting software from IDBS Ltd. The inhibition constant (Ki) was calculated from the Cheng Prusoff equation: (Ki=IC50/(1+(L/KD)), where L=concentration of radioligand in the assay, and KD=affinity of the radioligand for the receptor.

Sequence of human 5-HT3 receptor (P46098 24-478): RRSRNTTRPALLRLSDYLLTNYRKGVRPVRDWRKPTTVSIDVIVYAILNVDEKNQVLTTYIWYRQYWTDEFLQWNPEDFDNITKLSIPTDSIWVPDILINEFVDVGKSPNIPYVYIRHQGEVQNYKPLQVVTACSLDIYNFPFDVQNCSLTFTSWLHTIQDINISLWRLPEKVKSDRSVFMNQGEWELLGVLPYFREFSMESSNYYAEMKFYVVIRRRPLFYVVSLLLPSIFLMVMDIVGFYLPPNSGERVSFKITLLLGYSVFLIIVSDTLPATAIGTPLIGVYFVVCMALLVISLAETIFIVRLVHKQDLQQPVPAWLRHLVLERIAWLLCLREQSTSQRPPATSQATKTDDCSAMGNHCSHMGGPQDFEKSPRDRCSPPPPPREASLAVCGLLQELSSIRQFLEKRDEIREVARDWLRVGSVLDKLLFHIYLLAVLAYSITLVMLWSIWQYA

Structure (SMILES) | Ki
COc1cc2c3c(cnn3CCN([C@@H]3CN4CCC3CC4)C2=O)c1 [Example 10, (S)-4-methoxy-7-(quinuclidin-3-yl)-8,9-dihydro-[1,4]diazepino[6,7,1-hi]indazol-6(7H)-one] | 14 nM
COc1ccc(Cn2cc3c4c(cccc42)C(=O)N(CC24CCN(CC2)CC4)CC3)cc1 [Example 27, 6-(4-methoxybenzyl)-2-(quinuclidin-4-ylmethyl)-2,3,4,6-tetrahydro-1H-azepino[5,4,3-cd]indol-1-one] | 8 nM

Same assay, conditions: 10 μM compound, radioligand binding; read-out: h5-HT3A % inhibition @ 10 μM

Structure (SMILES) | inhibition at 10 µM
CC(C)c1nc2cccc3c2n1CCN([C@@H]1CN2CCC1CC2)C3=O [Example 19, 2-isopropyl-6-((S)-quinuclidin-3-yl)-5,6-dihydroimidazo[4,5,1-jk][1,4]benzodiazepin-7(4H)-one] | 74%
O=C1c2cccc3nc(-c4ccccc4)n(c23)CCN1[C@H]1CN2CCC1CC2 [Example 20, 2-phenyl-6-((R)-quinuclidin-3-yl)-5,6-dihydroimidazo[4,5,1-jk][1,4]benzodiazepin-7(4H)-one] | 23%
CC(C)c1nc2cccc3c2n1CCN([C@H]1CN2CCC1CC2)C3=O [Example 18, 2-isopropyl-6-((R)-quinuclidin-3-yl)-5,6-dihydroimidazo[4,5,1-jk][1,4]benzodiazepin-7(4H)-one] | 51%
O=C1c2cccc3nc(-c4ccc(F)cc4)n(c23)CCN1[C@@H]1CN2CCC1CC2 [Example 22, 2-(4-fluorophenyl)-6-((S)-quinuclidin-3-yl)-5,6-dihydroimidazo[4,5,1-jk][1,4]benzodiazepin-7(4H)-one] | 69%

Same assay, conditions: [9-methyl-3H]BRL-43694 10 nM, human 5-HT3 receptor membranes, Cheng Prusoff; read-out: h5-HT3A Ki

Structure (SMILES) | Ki
O=C1c2cccc3[nH]c(=O)n(c23)CCN1[C@@H]1CN2CCC1CC2 [Example 25, 6-((S)-quinuclidin-3-yl)-5,6-dihydroimidazo[4,5,1-jk][1,4]benzodiazepine-2,7(1H, 4H)-dione] | 7 nM
O=C1c2cccc3ccn(c23)CCCN1[C@@H]1CN2CCC1CC2 [Example 6, (S)-2-(quinuclidin-3-yl)-2,3,4,5-tetrahydro-1H-[1,5]diazocino[3,2,1-hi]indol-1-one] | 205 nM
O=C1c2cccc3cnn(c23)CCN1CC12CCN(CC1)CC2 [Example 32, 7-(quinuclidin-4-ylmethyl)-8,9-dihydro-[1,4]diazepino[6,7,1-hi]indazol-6(7H)-one] | 73 nM
O=C1c2cccc3[nH]cc(c23)CCN1CC12CCN(CC1)CC2 [Example 28, 2-(quinuclidin-4-ylmethyl)-2,3,4,6-tetrahydro-1H-azepino[5,4,3-cd]indol-1-one] | 30 nM
O=C1c2cccc3ccn(c23)CCN1[C@@H]1CN2CCC1CC2 [Example 2, (S)-2-(quinuclidin-3-yl)-3,4-dihydro-[1,4]diazepino[6,7,1-hi]indol-1(2H)-one] | 4 nM
O=C1c2cccc3nc(-c4ccccc4Cl)n(c23)CCN1[C@@H]1CN2CCC1CC2 [Example 23, 2-(2-chlorophenyl)-6-((S)-quinuclidin-3-yl)-5,6-dihydroimidazo[4,5,1-jk][1,4]benzodiazepin-7(4H)-one] | 206 nM
O=C1c2cccc3ccn(c23)CCCN1[C@H]1CN2CCC1CC2 [Example 5, (R)-2-(quinuclidin-3-yl)-2,3,4,5-tetrahydro-1H-[1,5]diazocino[3,2,1-hi]indol-1-one] | 416 nM
O=C1c2cccc3nc(-c4ccccc4)n(c23)CCN1[C@@H]1CN2CCC1CC2 [Example 21, 2-phenyl-6-((S)-quinuclidin-3-yl)-5,6-dihydroimidazo[4,5,1-jk][1,4]benzodiazepin-7(4H)-one] | 406 nM
O=C1c2cc(F)cc3cnn(c23)CCN1[C@@H]1CN2CCC1CC2 [Example 9, (S)-4-fluoro-7-(quinuclidin-3-yl)-8,9-dihydro-[1,4]diazepino[6,7,1-hi]indazol-6(7H)-one] | 6 nM
O=C1c2cc(O)cc3cnn(c23)CCN1[C@@H]1CN2CCC1CC2 [Example 12, (S)-4-hydroxy-7-(quinuclidin-3-yl)-8,9-dihydro-[1,4]diazepino[6,7,1-hi]indazol-6(7H)-one] | 2 nM
Cc1cn2c3c(cc(Cl)cc13)C(=O)N([C@@H]1CN3CCC1CC3)CC2 [Example 4, (S)-9-chloro-7-methyl-2-(quinuclidin-3-yl)-3,4-dihydro-[1,4]diazepino[6,7,1-hi]indol-1(2H)-one] | 0.2 nM
O=C1c2cccc3c2N(CCN1[C@@H]1CN2CCC1CC2)S(=O)(=O)N3 [Example 26, 6-((S)-quinuclidin-3-yl)-5,6-dihydro-1H-[1,2,5]thiadiazolo[4,3,2-jk][1,4]benzodiazepin-7(4H)-one 2,2-dioxide] | 701 nM
O=C1c2cccc3ccn(c23)CCN1[C@H]1CN2CCC1CC2 [Example 1, (R)-2-(quinuclidin-3-yl)-3,4-dihydro-[1,4]diazepino[6,7,1-hi]indol-1(2H)-one] | 74 nM
O=C1c2cccc3ncn(c23)CCN1[C@@H]1CN2CCC1CC2 [Example 13, 6-((S)-quinuclidin-3-yl)-5,6-dihydroimidazo[4,5,1-jk][1,4]benzodiazepin-7(4H)-one] | 32 nM
Cc1cn2c3c(cccc13)C(=O)N([C@@H]1CN3CCC1CC3)CC2 [Example 3, (S)-7-methyl-2-(quinuclidin-3-yl)-3,4-dihydro-[1,4]diazepino[6,7,1-hi]indol-1(2H)-one] | 5 nM
O=C1c2cc(Cl)cc3cnn(c23)CCN1[C@@H]1CN2CCC1CC2 [Example 8, (S)-4-chloro-7-(quinuclidin-3-yl)-8,9-dihydro-[1,4]diazepino[6,7,1-hi]indazol-6(7H)-one] | 0.5 nM
Cc1cc2c3c(cnn3CCN([C@@H]3CN4CCC3CC4)C2=O)c1 [Example 11, (S)-4-methyl-7-(quinuclidin-3-yl)-8,9-dihydro-[1,4]diazepino[6,7,1-hi]indazol-6(7H)-one] | 0.8 nM
CCc1nc2cccc3c2n1CCN([C@@H]1CN2CCC1CC2)C3=O [Example 17, 2-ethyl-6-((S)-quinuclidin-3-yl)-5,6-dihydroimidazo[4,5,1-jk][1,4]benzodiazepin-7(4H)-one] | 130 nM

Same assay, conditions: read-out: h5-HT3A % inhibition @ 10 μM

Structure (SMILES) | inhibition at 10 µM
O=C1c2cccc3[nH]c(=O)n(c23)CCN1[C@H]1CN2CCC1CC2 [Example 24, 6-((R)-quinuclidin-3-yl)-5,6-dihydroimidazo[4,5,1-jk][1,4]benzodiazepine-2,7(1H, 4H)-dione] | 75%
CCc1nc2cccc3c2n1CCN([C@H]1CN2CCC1CC2)C3=O [Example 16, 2-ethyl-6-((R)-quinuclidin-3-yl)-5,6-dihydroimidazo[4,5,1-jk][1,4]benzodiazepin-7(4H)-one] | 39%
Cc1nc2cccc3c2n1CCN([C@H]1CN2CCC1CC2)C3=O [Example 14, 2-methyl-6-((R)-quinuclidin-3-yl)-5,6-dihydroimidazo[4,5,1-jk][1,4]benzodiazepin-7(4H)-one] | 40%
Cc1nc2cccc3c2n1CCN([C@@H]1CN2CCC1CC2)C3=O [Example 15, 2-methyl-6-((S)-quinuclidin-3-yl)-5,6-dihydroimidazo[4,5,1-jk][1,4]benzodiazepin-7(4H)-one] | 80%

Target: h5-HT3A receptor (Homo sapiens (Human), UniProt P46098)
Sequence (P46098 24-478): as above
Assay: Agonist activity at recombinant human 5-HT3A receptors, [Ca2+]i in HEK293 cells
Type: cell-based
Details: at 1 μM, normalized to the response of 5-HT (5-HT response = 100% at 3 μM); NR = no response
Procedure: Human embryonic kidney (HEK293) cells expressing the h5-HT3A receptor subunit were seeded directly into poly-D-lysine coated, black-walled, clear bottomed, 96 well plates with approximately 1×10^5 cells per well. After 48 hrs incubation in DMEM growth media (100 μL), cells were washed twice (each 200 μL) in Hank's balanced salt solution (Invitrogen) before incubation (1 hr) with Fluo-4 acetoxymethyl (AM) ester (100 μL, 2.5 μM; Molecular Probes). Cells were washed twice (each 200 μL) in Hank's balanced salt solution and incubated for a further 30 min in Hank's balanced salt solution (100 μL) prior to assay (25° C.). Alteration in [Ca^2+]i was measured (relative fluorescence units [RFU]) using a Flexstation (excitation 488 nm and emission 515 nm; frequency of recording 3 sec). After recording for at least 80 sec, vehicle (Hank's balanced salt solution) or drug was automatically administered to the well (50 μL). Baseline was calculated from the 5 data points immediately prior to the first drug administration and the maximum response was that achieved over the 240 sec following drug administration. In all experiments the muscarinic receptor agonist carbachol (1 mM) was added 240 sec after the test drug administration.

Structure (SMILES) | HEK293 h5-HT3A % agonist response
O=C1c2cccc3[nH]c(=O)n(c23)CCN1[C@@H]1CN2CCC1CC2 [Example 25, 6-((S)-quinuclidin-3-yl)-5,6-dihydroimidazo[4,5,1-jk][1,4]benzodiazepine-2,7(1H, 4H)-dione] | 83%
O=C1c2cccc3ccn(c23)CCN1[C@@H]1CN2CCC1CC2 [Example 2, (S)-2-(quinuclidin-3-yl)-3,4-dihydro-[1,4]diazepino[6,7,1-hi]indol-1(2H)-one] | 7%
Cc1cn2c3c(cccc13)C(=O)N([C@@H]1CN3CCC1CC3)CC2 [Example 3, (S)-7-methyl-2-(quinuclidin-3-yl)-3,4-dihydro-[1,4]diazepino[6,7,1-hi]indol-1(2H)-one] | 13%

Reference: US9045501B2, “5-HT3 receptor modulators, methods of making, and use thereof” (Albany Molecular Research, Inc., priority 2009, dated 2015)
